Data on two compounds can be found in patent US8846411B2, “Derivatives, reagents, and immunoassay for detecting levetiracetam” (Microgenics Corporation, priority 2009, dated 2014).

Data set [1] relates to anti-levetiracetam antibody prepared with immunogen 18a. Briefly: Antibody avidity by ELISA binding inhibition study with levetiracetam. To be noted: Sheep No. 5479 antibody. As to the method: The avidity of the anti-levetiracetam antibody prepared with immunogen 18a for various levetiracetam derivatives were determined by a binding inhibition study. Samples were prepared in 1 mL of PBS at pH 7.4 with 0.1% BSA. A composition having 30% Bmax titer or 50% Bmax titer was used to divide the titer value as obtained in Example 38 into approximately half the titer value. Using 30% Bmax, an antibody titer of 1:10000 was diluted to […] during the sample preparation stage. About 50 μL of levetiracetam at different concentrations or calibrator values, (0, 5, 10, 20, 40, 80 μg/ml) were applied to a plate as prepared in accordance with Example 38. About 50 μL of the diluted antibody was dispensed into the plate, and the compositions in the plate were mixed for 1 min on a horizontal plate shaker. No levetiracetam or anti-levetiracetam antibody was added to the first row of the plate, which served as a negative control. A second row with anti-levetiracetam antibody but without levetiracetam was used as the positive control. The plate was incubated for 60 min and washed three times with 250 μL of PBS at pH 7.4 with 0.05% Tween 20. About 125 μL of a diluted derivative such as 18b or 19 in PBS at pH 7.4 was added to each well of the plate. The plate was incubated for 60 min at 37° C. and washed as described above. Approximately 125 μL of ABTS substrate was added to each well of the plate and incubated for 20 min.
A general note: An ELISA detects its analyte on a solid surface through an enzyme-linked reagent.

The conditions of data set [2]: cited from earlier work.

`CC[C@@H](C(N)=O)N1CCCC1=O` [Levetiracetam, (−)-(S)-α-ethyl-2-oxo-1-pyrrolidine acetamide]: the B/Bo in data set [1] (Levetiracetam 5 μg/mL, Antigen 18b) is 0.96; in data set [1] (Levetiracetam 5 μg/mL, Antigen 19), 0.98; in data set [1] (Levetiracetam 10 μg/mL, Antigen 18b), 0.98; in data set [1] (Levetiracetam 10 μg/mL, Antigen 19) it was 0.91; in data set [1] (Levetiracetam 20 μg/mL, Antigen 18b), 0.90; in data set [1] (Levetiracetam 20 μg/mL, Antigen 19), 0.86. Also, the B/Bo in data set [1] (Levetiracetam 40 μg/mL, Antigen 18b) is listed as 0.88; in data set [1] (Levetiracetam 40 μg/mL, Antigen 19) it was 0.78; in data set [1] (Levetiracetam 80 μg/mL, Antigen 18b), 0.87; in data set [1] (Levetiracetam 80 μg/mL, Antigen 19), 0.77. In addition, the nominal therapeutic range in data set [2] (in vivo) was 6 to 20 µg/mL. The “optimal trough serum/plasma concentration range” value in data set [2] (trough, serum/plasma) was 10 to 60 mg/L. Moreover, the “given dose excreted unchanged in urine” value in data set [2] (urine, elimination via the kidney) is “approximately 64%”.
On to `O=C(O)CCCN1CCCC1=O` [2-pyrrolidone-N-butyric acid], for which the “share of the administered dose accounted for by metabolite excreted in urine” value in data set [2] (urine, after administration of LEV) is reported as “approximately 27%”.
